Series [1] concerns MCF7 human breast adenocarcinoma cells. As to the kind of experiment: Cell toxicity assay (MTT), MCF7. The conditions noted are these: for GI50: Homo sapiens, MCF7, read-out: GI 50 value; for Complete inhibition: MCF7 breast. The format is cell-based. An excerpt: (§1) Cell culture and toxicity assay. While HCT116 human colorectal carcinoma cells (ATCC, Manassas, USA), LoVo human colorectal adenocarcinoma cells (ATCC), AGS human gastric adenocarcinoma cells (ATCC), MCF7 human breast adenocarcinoma cells (ATCC), human esophageal smooth muscle primary cells (SMCs) (Cell Biologics, Chicago, USA) and CT26 mouse colorectal carcinoma cells (ATCC) are used according to the claimed invention, other illustrative cell lines may similarly be utilized. Cells are cleared of mycoplasma contamination prior to use using Mycoalert™ PLUS mycoplasma detection kit (Lonza). HCT116 cells are cultured in McCoy's 5A medium, LoVo and AGS cells in Ham's F12 medium, MCF7 cells in DMEM medium, CT26 cells in RPMI medium, and SMCs in the specific medium kit purchased from Cell Biologics. In this illustrative embodiment, unless otherwise stated all cell culture media are purchased from Lonza (Walkersville, USA) and are supplemented with antibiotics (penicillin/streptomycin) and 5% fetal bovine serum (FBS, v/v). SMCs are prepared according to the manufacturer's protocol. All cell cultures are maintained at 37° C. and 5% CO2. Cells are seeded in 96-well plates or on glass coverslips in 6-well plates at a density of 5×10^5/well and are cultured at 37° C. and 5% CO2 a day before protein-binding studies or co-culturing with transformed Nissle cells.
(§2) Cellular viability is measured at 3 hours, 24 hours and 72 hours post-treatment using the MTT assay (Sigma, St. Louis, USA). The inhibitory activity of myrosinase-converted AITC is performed by incubating cancer cells grown to 60% confluency with 0.1 μM of purified secreted I1 myrosinase with 0˜10 mM sinigrin at 37° C. and 5% CO2 and was sampled at 3 hours, 24 hours and 72 hours post-treatment. The MTT readout is fitted to a dose-response curve to determine the GI50 value (Eq. 2). Absorbance (570 nm)=Bottom+(Top−Bottom)/(1+10^(([Inhibitor]−Log 10 GI50))) (Eq. 2) HlpA binding assay. The HlpA gene sequence is optimized for E. coli expression, and the gene is cloned into a pET28b vector with an N-terminal GFP. GFP-HlpA and GFP are expressed using similar purification protocols, described above. […] Treated and adherent cells are washed with sterile PBS twice before staining with DAPI. The GFP/DAPI ratio is used to evaluate the binding ratio of protein binding per cell (Eq. 3). […] The cancer 394 cells are washed twice with 1×PBS and measured for DAPI and RFP emission. The fluorescence emission is compared on the linear standard curve of stained cells against the average fluorescence emission to determine the binding ratio of E. coli to cancer cells.

Series [2] deals with various colorectal, gastric and breast cancer cell lines. As to the kind of experiment: Growth inhibition in cancer cell lines. Type of series: cell-based. An excerpt: (§3) Cell culture and toxicity assay. While HCT116 human colorectal carcinoma cells (ATCC, Manassas, USA), LoVo human colorectal adenocarcinoma cells (ATCC), AGS human gastric adenocarcinoma cells (ATCC), MCF7 human breast adenocarcinoma cells (ATCC), human esophageal smooth muscle primary cells (SMCs) (Cell Biologics, Chicago, USA) and CT26 mouse colorectal carcinoma cells (ATCC) are used according to the claimed invention, other illustrative cell lines may similarly be utilized. Cells are cleared of mycoplasma contamination prior to use using Mycoalert™ PLUS mycoplasma detection kit (Lonza). HCT116 cells are cultured in McCoy's 5A medium, LoVo and AGS cells in Ham's F12 medium, MCF7 cells in DMEM medium, CT26 cells in RPMI medium, and SMCs in the specific medium kit purchased from Cell Biologics. […]
(§4) Cellular viability is measured at 3 hours, 24 hours and 72 hours post-treatment using the MTT assay (Sigma, St. Louis, USA). […] The MTT readout is fitted to a dose-response curve to determine the GI50 value (Eq. 2). Absorbance (570 nm)=Bottom+(Top−Bottom)/(1+10^(([Inhibitor]−Log 10 GI50))) (Eq. 2) HlpA binding assay. […] The cancer 394 cells are washed twice with 1×PBS and measured for DAPI and RFP emission. The fluorescence emission is compared on the linear standard curve of stained cells against the average fluorescence emission to determine the binding ratio of E. coli to cancer cells.

Series [3] has as its system LoVo human colorectal adenocarcinoma cells. The experiment in a line: Cell toxicity assay (MTT), LoVo. The format is cell-based. The conditions noted are these: for GI50: Homo sapiens, LoVo, read-out: GI 50 value; for Complete inhibition: LoVo colorectal.
Excerpt: as §1, §2

Series [4] deals with HCT116 human colorectal carcinoma cells. As to the kind of experiment: Cell toxicity assay (MTT), HCT116. Type of series: cell-based. As to conditions: for Complete inhibition: HCT116 colorectal; for GI50: Homo sapiens, HCT-116, read-out: GI 50 value.
Excerpt: as §1, §2

Series [5] has as its system AGS human gastric adenocarcinoma cells. As to the kind of experiment: Cell toxicity assay (MTT), AGS. The format is cell-based. As to conditions: for Complete inhibition: AGS gastric; for GI50: Homo sapiens, read-out: GI 50 value.
Excerpt: as §1, §2

Series [6] deals with human esophageal smooth muscle primary cells (SMCs). The experiment in a line: Cell toxicity assay (MTT), SMC. Type of series: cell-based. As to conditions: for GI50: Homo sapiens, read-out: GI 50 value.
Excerpt: as §1, with “CO2.” for “CO2. Cells are seeded in 96-well plates or on glass coverslips in 6-well plates at a density of 5×10^5/well and are cultured at 37° C. and 5% CO2 a day before protein-binding studies or co-culturing with transformed Nissle cells.”
The MTT readout is fitted to a dose-response curve to determine the GI50 value (Eq. 2). Absorbance (570 nm)=Bottom+(Top−Bottom)/(1+10^(([Inhibitor]−Log 10 GI50))) (Eq. 2) HlpA binding assay. The HlpA gene sequence is optimized for E. coli expression, and the gene is cloned into a pET28b vector with an N-terminal GFP. GFP-HlpA and GFP are expressed using similar purification protocols, described above. […] Treated and adherent cells are washed with sterile PBS twice before staining with DAPI. The GFP/DAPI ratio is used to evaluate the binding ratio of protein binding per cell (Eq. 3). Ratio (GFP/DAPI)=Bottom+(Top−Bottom)/(1+10^(([Ligand]−Log 10 KD))) (Eq. 3) Similarly, N-terminal INP tagged to HlpA are cloned into the pBbE8K vector and co390 transformed with pBbE8a-RFP into E. coli Nissle. E. coli cells are cultured in LB supplemented with 50 mg/L ampicillin and 25 mg/L kanamycin and are induced with 1% arabinose. […] The cancer 394 cells are washed twice with 1×PBS and measured for DAPI and RFP emission. The fluorescence emission is compared on the linear standard curve of stained cells against the average fluorescence emission to determine the binding ratio of E. coli to cancer cells.

The test system of series [7] is various colorectal, gastric and breast cancer cell lines. As to the kind of experiment: Growth inhibition (MTT), summary over cancer cell lines. The format is cell-based. The conditions noted are these: read-out: 50% growth inhibition (GI50) values.
Excerpt: as §3
The MTT readout is fitted to a dose-response curve to determine the GI50 value (Eq. 2). Absorbance (570 nm)=Bottom+(Top−Bottom)/(1+10^(([Inhibitor]−Log 10 GI50))) (Eq. 2) HlpA binding assay. […] The cancer 394 cells are washed twice with 1×PBS and measured for DAPI and RFP emission. The fluorescence emission is compared on the linear standard curve of stained cells against the average fluorescence emission to determine the binding ratio of E. coli to cancer cells.

The test system of series [8] is CT26 mouse colorectal carcinoma cells. The experiment in a line: Cell toxicity assay (MTT), CT26. The format is cell-based. As to conditions: for Complete inhibition: CT26 colorectal; for GI50: Mus musculus, CT26, read-out: GI 50 value.
Excerpt: as §1, §2

Series [9] concerns primary stem cells or other non-cancer cell lines. The conditions noted are these: in words; cited from earlier work.
The test system of series [10] is LoVo colorectal adenocarcinoma cells. As to the kind of experiment: Growth inhibition assay (MTT), LoVo. The format is cell-based, human.
Excerpt: as §3
as §4, with “cells. […]” for “cells.”

Series [11] deals with CT26 colorectal carcinoma cells. The experiment in a line: Growth inhibition assay (MTT), CT26. The format is cell-based, mouse.
Excerpt: as §3
as §4, with “cells. […]” for “cells.”

For series [12], the system named is HCT116 colorectal carcinoma cells. The experiment in a line: Growth inhibition assay (MTT), HCT116. Type of series: cell-based, human.
Excerpt: as §3
as §4, with “cells. […]” for “cells.”

In series [13] the test system is SMC (esophageal smooth muscle primary cells). As to the kind of experiment: Growth inhibition assay (MTT), SMC. The format is cell-based, human. The conditions noted are these: purified YebF-I1 fusion protein and sinigrin, in words.
Excerpt: as §3
as §4, with “cells. […]” for “cells.”

The test system of series [14] is AGS gastric adenocarcinoma cells. The experiment in a line: Growth inhibition assay (MTT), AGS. The format is cell-based, human.
Excerpt: as §3
as §4, with “cells. […]” for “cells.”

Series [15] concerns MCF7 breast adenocarcinoma cells. As to the kind of experiment: Growth inhibition assay (MTT), MCF7. The format is cell-based, human.
Excerpt: as §3
as §4, with “cells. […]” for “cells.”

Another series addresses CT26. The experiment in a line: HlpA binding assay (GFP/DAPI ratio), CT26. The conditions noted are these: CT26 murine colorectal cell line. How it is done: as §2
Another series deals with smooth muscle cells. As to the kind of experiment: HlpA binding assay (GFP/DAPI ratio), smooth muscle cells. Also on record: species or system human. How it is done:
as §2

Series [16] deals with gastric (AGS) cancer cell line. As to the kind of experiment: HlpA binding assay (GFP/DAPI ratio), AGS. Also on record: species or system human. How it is done:
as §2

Another series deals with LoVo. The experiment in a line: HlpA binding assay (GFP/DAPI ratio), LoVo. The conditions noted are these: LoVo human colorectal cell line. How it is done:
as §2

For series [17], the system named is breast (MCF7) cancer cell line. As to the kind of experiment: HlpA binding assay (GFP/DAPI ratio), MCF7. Also on record: species or system human. Here is the method:
as §2

Another series addresses HCT116. As to the kind of experiment: HlpA binding assay (GFP/DAPI ratio), HCT116. The conditions noted are these: HCT116 human colorectal cell line. How it is done:
as §2

Where [18] appears, read: 0.1 μM purified secreted I1 myrosinase with sinigrin.
Where [19] appears, read: Homo sapiens, 0.1 μM purified secreted I1 myrosinase with 0~10 mM sinigrin, read-out: GI 50 value.

Read-outs that look alike come from different tables or passages of the source. Bounds are passed on as bounds.

For `C=CCN=C=S` [AITC, allyl isothiocyanate], the GI50 is 104 µM in [1]; 74 µM in [3]; 116 µM in series [4]; 18 µM in [5]; 589 µM in [6]; around 100 µM in [7]. Besides, the GI50 in [8] was found to be 15 µM. For the same molecule, the Complete inhibition in [1] is below 3 h; in series [3], below 24 h; in series [4] it was below 24 h; in series [5] it was below 24 h; in [8], below 24 h. Further, the “Inhibition of cancer cell growth compared with L-sulforaphane” value in series [2] (in words) is reported as “poorer efficacy compared with L-sulforaphane”. Besides, in series [6], the “inhibition of primary smooth muscle cells” value was “does not inhibit”.

Take `C[S@@+]([O-])CCCCN=C=S` [L-sulforaphane]: the GI50 is 29 µM in [1]; 23 µM in series [3]; 30 µM in series [4]; 15 µM in series [5]; 375 µM in series [6] (SMC primary cells, MTT); below 100 µM in series [7] (various colorectal, gastric and breast cancer cell lines). Further, the GI50 in [8] was 45 µM. Moreover, the Complete inhibition is below 3 h in series [1]; below 24 h in series [3]; below 24 h in series [4]; below 24 h in [5]; below 24 h in series [8]. Also, in series [2] (upon adding L-sulforaphane), the “Growth inhibition observed within” value was at most 24 h. The “Effect on primary stem cells or other non-cancer cell lines” value in series [9] is listed as “does not affect”. In addition, the “inhibition of primary smooth muscle cells” value in series [6] is “does not inhibit”.

In the case of `C=CCN=C=S` [YebF-I1-converted AITC, allyl isothiocyanate], the Complete inhibition in series [10] (setting [18]) was below 21 h; in [11] (setting [18]), below 24 h; in series [12] (setting [18]), below 24 h; in [14] (setting [18]) it was below 24 h; in [15] (setting [18]) it was below 24 h. Further, the GI50 was determined as 232 µM in [10] (setting [19]); 46 µM in [11] (Mus musculus, 0.1 μM purified secreted I1 myrosinase with 0~10 mM sinigrin, read-out: GI 50 value); 155 µM in series [12] (Homo sapiens, HCT-116, 0.1 μM purified secreted I1 myrosinase with 0~10 mM sinigrin, read-out: GI 50 value); 26 µM in series [14] (setting [19]); 139 µM in [15] (setting [19]). Further, the “Inhibition of primary smooth muscle cell line” value in [13] is on record as “no inhibition”.

Turning to “GFP-HlpA: purified N-terminal GFP-tagged Histone-like protein A (HlpA) from Streptococcus gallolyticus”, the binding affinity entry on CT26, at LoVo and at HCT116 was “sub-micromolar” in each case. The “weaker binding affinity relative to colorectal cell lines” value in the series with smooth muscle cells was found to be 6 fold. For the same molecule, the binding result in [16] and in series [17] was “No binding” in each case.

The values above are taken from US11925667B2, “Engineered therapeutic probiotic system and method” (priority 2018, dated 2024).
